Square brackets hold non-standard residues; d marks the D form. Peptide text beside a SMILES is read from it. * marks the point of attachment. NH((S)CH(Me)CH2NHC2H4OH) = C[C@@H](CNCCO)N*; Alaψ(CH2NMeCH2CH2OH) = C[C@@H](CN(C)CCO)N*; NH((S)CH(Me)CH2NMe2) = C[C@@H](CN(C)C)N*; NH((S)CH(CH3)CH2NHMe) = CNC[C@H](C)N*; Gly(octyl) = CCCCCCCC[C@H](N)C(=O)O; X5 = C[C@@H](N*)[C@@H](O)c1ccccc1; Hyp = O=C(O)[C@@H]1C[C@@H](O)CN1; Cha = N[C@@H](CC1CCCCC1)C(=O)O; Phe(ol) = N[C@H](CO)Cc1ccccc1; Lauroyl = CCCCCCCCCCCC(=O)*; Decanoyl = CCCCCCCCCC(=O)*; Pip = O=C(O)[C@@H]1CCCCN1; X1 = C[C@@H](CN1CCNCC1)N*; Octanoyl = CCCCCCCC(=O)*; Hexanoyl = CCCCCC(=O)*; Alaol = C[C@@H](CO)N*; Aib = CC(C)(N)C(=O)O; X3 = C[C@H](CNCCO)N*; Butyryl = CCCC(=O)*; NHCH2CH2OH = OCCN*; βAla = NCCC(=O)O; X4 = OCCNCCN*
What was measured:
Format in all cases: functional, cell-based
MDA-MB-468 = experiment: Antiproliferative activity against human MDA-MB-468 cells assessed as reduction in cell growth by SRB assay
NCI-H460 = experiment: Antiproliferative activity against human NCI-H460 cells assessed as reduction in cell growth by SRB assay
SK-BR-3 = experiment: Antiproliferative activity against human SKBR3 cells assessed as reduction in cell growth by SRB assay
T47D = experiment: Antiproliferative activity against human T47D cells assessed as reduction in cell growth by SRB assay

Structure (SMILES)	IC50 (MDA-MB-468)	IC50 (NCI-H460)	IC50 (SK-BR-3)	IC50 (T47D)
CCCCCCCC[C@H](NC(=O)C(C)(C)NC(=O)C(C)(C)NC(=O)[C@H](CC1CCCCC1)NC(=O)[C@@H]1C[C@@H](O)CN1C(=O)CCC)C(=O)N[C@@H](CC(C)C)C(=O)NC(C)(C)C(=O)N[C@@H](CC(C)C)C(=O)NCCC(=O)N[C@@H](C)CNCCO (Butyryl-[Hyp][Cha][Aib][Aib][Gly(octyl)]L[Aib]L[βAla]-{NH((S)CH(Me)CH2NHC2H4OH)})	37 nM	40 nM	124 nM	38 nM
CCCCCCCC[C@H](NC(=O)C(C)(C)NC(=O)C(C)(C)NC(=O)[C@H](CC1CCCCC1)NC(=O)[C@@H]1CCCN1C(=O)CCC)C(=O)N[C@@H](CC(C)C)C(=O)NC(C)(C)C(=O)N[C@@H](CC(C)C)C(=O)NCCC(=O)NCCO (Butyryl-P[Cha][Aib][Aib][Gly(octyl)]L[Aib]L[βAla]-NHCH2CH2OH)	363 nM	223 nM	512 nM	767 nM
CCCCCCCCCC(=O)N1CCC[C@H]1C(=O)N[C@@H](CC1CCCCC1)C(=O)NC(C)(C)C(=O)NC(C)(C)C(=O)N[C@@H](CCCCCCCC)C(=O)N[C@@H](CC(C)C)C(=O)NC(C)(C)C(=O)N[C@@H](CC(C)C)C(=O)NCCC(=O)N[C@@H](C)CNCCO (Decanoyl-P[Cha][Aib][Aib][Gly(octyl)]L[Aib]L[βAla]-{NH((S)CH(Me)CH2NHC2H4OH)})	6 nM	9 nM	20 nM	13 nM
CCCCCCCC[C@H](NC(=O)C(C)(C)NC(=O)C(C)(C)NC(=O)[C@H](CC1CCCCC1)NC(=O)[C@@H]1CCCCN1C(=O)CCC)C(=O)N[C@@H](CC(C)C)C(=O)NC(C)(C)C(=O)N[C@@H](CC(C)C)C(=O)NCCC(=O)N[C@@H](C)CNCCO (Butyryl-[Pip][Cha][Aib][Aib][Gly(octyl)]L[Aib]L[βAla]-{NH((S)CH(Me)CH2NHC2H4OH)})	11 nM	9 nM	34 nM	11 nM
CCCCCCCCCCCC(=O)N1CCC[C@H]1C(=O)N[C@@H](CC1CCCCC1)C(=O)NC(C)(C)C(=O)NC(C)(C)C(=O)N[C@@H](CCCCCCCC)C(=O)N[C@@H](CC(C)C)C(=O)NC(C)(C)C(=O)N[C@@H](CC(C)C)C(=O)NCCC(=O)N[C@@H](C)CNCCO (Lauroyl-P[Cha][Aib][Aib][Gly(octyl)]L[Aib]L[βAla]-{NH((S)CH(Me)CH2NHC2H4OH)})	23 nM	37 nM	73 nM	63 nM
CCCCCCCC[C@H](NC(=O)C(C)(C)NC(=O)C(C)(C)NC(=O)[C@H](CC1CCCCC1)NC(=O)[C@@H]1CCCN1C(=O)CCC)C(=O)N[C@@H](CC(C)C)C(=O)NC(C)(C)C(=O)N[C@@H](CC(C)C)C(=O)NCCC(=O)N[C@@H](C)CNC (Butyryl-P[Cha][Aib][Aib][Gly(octyl)]L[Aib]L[βAla]-{NH((S)CH(CH3)CH2NHMe)})	3 nM	3 nM	13 nM	5 nM
CCCCCCCC[C@H](NC(=O)C(C)(C)NC(=O)C(C)(C)NC(=O)[C@H](CC1CCCCC1)NC(=O)[C@@H]1CCCN1C(=O)CCC)C(=O)N[C@@H](CC(C)C)C(=O)NC(C)(C)C(=O)N[C@@H](CC(C)C)C(=O)NCCC(=O)N[C@@H](C)CN(C)C (Butyryl-P[Cha][Aib][Aib][Gly(octyl)]L[Aib]L[βAla]-{NH((S)CH(Me)CH2NMe2)})	4 nM	4 nM	10 nM	6 nM
CCCCCCCC[C@H](NC(=O)C(C)(C)NC(=O)C(C)(C)NC(=O)[C@H](CC1CCCCC1)NC(=O)[C@@H]1CCCN1C(=O)CCCCCCC)C(=O)N[C@@H](CC(C)C)C(=O)NC(C)(C)C(=O)N[C@@H](CC(C)C)C(=O)NCCC(=O)N[C@@H](C)CNCCO (Octanoyl-P[Cha][Aib][Aib][Gly(octyl)]L[Aib]L[βAla]-{NH((S)CH(Me)CH2NHC2H4OH)})	4 nM	4 nM	15 nM	7 nM
CCCCCCCC[C@H](NC(=O)C(C)(C)NC(=O)C(C)(C)NC(=O)[C@H](CC1CCCCC1)NC(=O)[C@@H]1CCCN1C(=O)CCC)C(=O)N[C@@H](CC(C)C)C(=O)NC(C)(C)C(=O)N[C@@H](CC(C)C)C(=O)NCCC(=O)N[C@H](CO)Cc1ccccc1 (Butyryl-P[Cha][Aib][Aib][Gly(octyl)]L[Aib]L[βAla][Phe(ol)])	144 nM	45 nM	178 nM	247 nM
CCCCCCCC[C@H](NC(=O)C(C)(C)NC(=O)C(C)(C)NC(=O)[C@H](CC1CCCCC1)NC(=O)[C@@H]1CCCN1C(=O)CCC)C(=O)N[C@@H](CC(C)C)C(=O)NC(C)(C)C(=O)N[C@@H](CC(C)C)C(=O)NCCC(=O)O (Butyryl-P[Cha][Aib][Aib][Gly(octyl)]L[Aib]L[βAla]-OH)	> 1000 nM	> 1000 nM	> 1000 nM	> 1000 nM
CCCCCCCC[C@H](NC(=O)C(C)(C)NC(=O)C(C)(C)NC(=O)[C@H](CC1CCCCC1)NC(=O)[C@@H]1CCCN1C(=O)CCCCC)C(=O)N[C@@H](CC(C)C)C(=O)NC(C)(C)C(=O)N[C@@H](CC(C)C)C(=O)NCCC(=O)N[C@@H](C)CNCCO (Hexanoyl-P[Cha][Aib][Aib][Gly(octyl)]L[Aib]L[βAla]-{NH((S)CH(Me)CH2NHC2H4OH)})	5 nM	4 nM	18 nM	7 nM
CCCCCCCC[C@H](NC(=O)C(C)(C)NC(=O)C(C)(C)NC(=O)[C@H](CC1CCCCC1)NC(=O)[C@@H]1CCCN1C(=O)CCC)C(=O)N[C@@H](CC(C)C)C(=O)NC(C)(C)C(=O)N[C@@H](CC(C)C)C(=O)NCCC(=O)N[C@H](C)CNCCO (Butyryl-P[Cha][Aib][Aib][Gly(octyl)]L[Aib]L[βAla]-X3)	31 nM	50 nM	205 nM	31 nM
CCCCCCCC[C@H](NC(=O)C(C)(C)NC(=O)C(C)(C)NC(=O)[C@H](CC1CCCCC1)NC(=O)[C@@H]1CCCN1C(=O)CCC)C(=O)N[C@@H](CC(C)C)C(=O)NC(C)(C)C(=O)N[C@@H](CC(C)C)C(=O)NCCC(=O)N[C@@H](C)CN1CCNCC1 (Butyryl-P[Cha][Aib][Aib][Gly(octyl)]L[Aib]L[βAla]-X1)	> 1000 nM	> 1000 nM	> 1000 nM	> 1000 nM
CCCCCCCC[C@H](NC(=O)C(C)(C)NC(=O)C(C)(C)NC(=O)[C@H](CC1CCCCC1)NC(=O)[C@@H]1CCCN1C(C)=O)C(=O)N[C@@H](CC(C)C)C(=O)NC(C)(C)C(=O)N[C@@H](CC(C)C)C(=O)NCCC(=O)N[C@@H](C)CNCCO (Ac-P[Cha][Aib][Aib][Gly(octyl)]L[Aib]L[βAla]-{NH((S)CH(Me)CH2NHC2H4OH)})	13 nM	11 nM	52 nM	15 nM
CCCCCCCC[C@H](NC(=O)C(C)(C)NC(=O)C(C)(C)NC(=O)[C@H](CC1CCCCC1)NC(=O)[C@@H]1CCCN1C(=O)CCC)C(=O)N[C@@H](CC(C)C)C(=O)NC(C)(C)C(=O)N[C@@H](CC(C)C)C(=O)NCCC(=O)NCCNCCO (Butyryl-P[Cha][Aib][Aib][Gly(octyl)]L[Aib]L[βAla]-X4)	10 nM	17 nM	67 nM	15 nM
CCCCCCCC[C@H](NC(=O)C(C)(C)NC(=O)C(C)(C)NC(=O)[C@H](CC1CCCCC1)NC(=O)[C@@H]1CCCN1C(=O)CCC)C(=O)N[C@@H](CC(C)C)C(=O)NC(C)(C)C(=O)N[C@@H](CC(C)C)C(=O)NCCC(=O)N[C@@H](C)CN(C)CCO (Butyryl-P[Cha][Aib][Aib][Gly(octyl)]L[Aib]L[βAla]-{Alaψ(CH2NMeCH2CH2OH)})	2 nM	2 nM	8 nM	3 nM
CCCCCCCC[C@H](NC(=O)C(C)(C)NC(=O)C(C)(C)NC(=O)[C@H](CC1CCCCC1)NC(=O)[C@@H]1CCCN1C(=O)CCC)C(=O)N[C@@H](CC(C)C)C(=O)NC(C)(C)C(=O)N[C@@H](CC(C)C)C(=O)NCCC(=O)N[C@@H](C)CO (Butyryl-P[Cha][Aib][Aib][Gly(octyl)]L[Aib]L[βAla]-Alaol)	336 nM	130 nM	509 nM	490 nM
CCCCCCCC[C@H](NC(=O)C(C)(C)NC(=O)C(C)(C)NC(=O)[C@H](CC1CCCCC1)NC(=O)[C@@H]1CCCN1C(=O)CCC)C(=O)N[C@@H](CC(C)C)C(=O)NC(C)(C)C(=O)N[C@@H](CC(C)C)C(=O)NCCC(=O)N[C@H](C)[C@@H](O)c1ccccc1 (Butyryl-P[Cha][Aib][Aib][Gly(octyl)]L[Aib]L[βAla]-X5)	242 nM	89 nM	344 nM	471 nM
CCCCCCCC[C@H](NC(=O)C(C)(C)NC(=O)C(C)(C)NC(=O)[C@H](CC1CCCCC1)NC(=O)[C@@H]1CCCN1)C(=O)N[C@@H](CC(C)C)C(=O)NC(C)(C)C(=O)N[C@@H](CC(C)C)C(=O)NCCC(=O)N[C@@H](C)CNCCO (H-P[Cha][Aib][Aib][Gly(octyl)]L[Aib]L[βAla]-{NH((S)CH(Me)CH2NHC2H4OH)})	10 nM	9 nM	57 nM	13 nM
